Values of other authors, collected in patent US11913924B2, “Ion generation using modified wetted porous materials” (Purdue Research Foundation, priority 2011, dated 2024).
Read-outs that look alike come from different tables or passages of the source.

Key:
[1] = in vivo
[2] = therapeutic windows listed in Table 6

Compound	Therapeutic range [2]	further results
O=P1(N(CCCl)CCCl)NCCCO1 (stereo not shown) [Cyclophosphamide, cyclophosphamide]	–	Therapeutic range (plasma concentrations, Regenthal et al., J. Clin. Monitor Comp. 1999): 10000 to 25000 ng/mL
CN(C)CCC=C1c2ccccc2CCc2ccccc21 [amitriptyline]	50 to 200 ng/mL	–
CN(C)CCCC1(c2ccc(F)cc2)OCc2cc(C#N)ccc21 (stereo not shown) [citalopram]	10 to 200 ng/mL	–
CN1C(=O)CC[C@H]1c1cccnc1 [cotinine]	–	half-life [1]: about 16 hours
CCN(CC)CC(=O)Nc1c(C)cccc1C [lidocaine]	1,000-6,000 ng mL^−1	–
CN1CCCC1c1cccnc1 (stereo not shown) [nicotine]	–	half-life [1]: about 2 hours
CCN(CC)CCNC(=O)c1c(C)[nH]c(/C=C2\C(=O)Nc3ccc(F)cc32)c1C [sunitinib]	20 to 200 ng/mL	–
